Where two headings read alike, the source gives them in different places.
Assays:
[1] = tested on: H3K27me3 mark in HeLa cells (EZH2); test: H3K27me3 Alpha Hela Assay (AlphaLISA); type: cell-based; conditions: HeLa cells, 72 hrs, read-out: EZH2 Cell H3K27me3 Alpha HeLa (EC50 K27me3)
Protocol: H3K27me3 Alpha Hela Assay (AlphaLISA). Ten different doses of each test compound (in a series of 3-fold dilutions) were plated in duplicate 384-well tissue culture treated plates (Catalog #6007680; Perkin Elmer, Waltham, Mass.). Hela cells grown in culture were trypsinized and counted using a Countess® cell counter (Catalog #C10281; Life Technologies, Grand Island, N.Y.). Cell were diluted to 67,000 cells per mL in 10% DMEM (Catalog #10569-010 Life Technologies, Grand Island, N.Y.) and 15 μL (1,000 cells) were plated into each well using the Biotek MicroFlo™ Select Dispenser (BioTek Instruments, Inc. Vermont, USA),) of the 384-well plate. Plates were incubated at 37° C./5% CO2 for 72 hrs. One of the duplicate plates was processed for HeLa assay and the other for viability.
5 μL of Cell-Histone Lysis buffer (1×) (Catalog #AL009F1 Perkin Elmer; Waltham, Mass.) per well was added to the plate processed for AlphaLISA and the plate was incubated at RT for 30 minutes on a plate shaker with low speed (Model #4625-Q Thermo Scientific; Waltham, Mass.). Then, 10 μL per well Histone Extraction buffer (catalog #AL009F2; Perkin Elmer; Waltham, Mass.) was added and the plate further incubated at RT for 20 min on plate shaker with low speed. Next, 10 μL of 5× mix of anti-K27me3 acceptor beads plus Biotinylated anti-Histone H3 (C-ter) Antibody (diluted to 3 nM final) (Catalog #AL118 Perkin Elmer; Waltham, Mass.) was added in each well. Dilution of the acceptor beads and anti-Histone H3 was done in 1× Histone Detection buffer (Catalog #AL009F3 Perkin Elmer; Waltham, Mass.) which was produced by diluting the 10× stock provided. The plate was sealed with an aluminum plate sealer and incubated at 23° C. for 60 min. Next, 10 μL 5× solution of Streptavidin Donor beads were added (Catalog #6760002 Perkin Elmer; Waltham, Mass.) (20 μg/mL final in 1× Histone Detection Buffer), =plate was sealed with Aluminum plate sealer and incubated at 23° C. for 30 min. The plates were then read using an EnVision-Alpha Reader (model #2104 Perkin Elmer; Waltham, Mass.).
Data from both assays was analyzed using Genedata (Basel, Switzerland). Data files were imported to Genedata and assay conditions were specified. A unique Analysis ID was created and the data files analysed to measure dose-dependent inhibition of H3K27me3 mark and cell viability respectively. Readout of DMSO wells were used to normalize the data. Resulting curves were fitted using Smart fit application (Genedata; Basel, Switzerland). The data was checked for quality, validated and integrated in excel format using Stardrop (Optibruim, Cambridge, UK).
EC50 values are reported as follows: “A” indicates an EC50 value of less than 10 nM; “B” indicates an EC50 value of 10 nM to 100 nM; “C” indicates an EC50 value of greater than 100 nM; and “ND” is not determined.

PRC2 containing wt EZH2 = PRC2 containing wt EZH2 (Homo sapiens (Human), UniProt Q15910); test: EZH2 biochemical assay (IC50), 3H-SAM incorporation into biotinylated H3 peptide
Protocol: EZH2 biochemical assay (IC50): Compound potencies were assessed through incorporation of ^3H-SAM into a biotinylated H3 peptide. Specifically, 30 pM PRC2 containing wt EZH2 (pentameric complex prepared in-house) was pre-incubated with 450 nM SAM, 450 nM ^3H-SAM, 2 μM H3K27me3 activating peptide (H2N-[…](Kme3)[…]-amide) and compounds (as 10 point duplicate dose response titrations in DMSO, final assay 0.8% DMSO (v/v)) for 3-5 h in 50 mM Tris (pH 8.5), 1 mM DTT, 0.07 mM Brij-35, 0.1% BSA, and 0.8% DMSO in a total volume of 12.5 μl. Reaction was initiated with biotinylated H3 substrate peptide (H2N-[…](Kme1)[…]-NTPEGBiot) as a 2 μM stock in 12.5 μl of buffer and allowed to react at room temperature for 18-22 h. Quenching was accomplished by addition of 20 μl of STOP solution (50 mM Tris (pH 8.5), 200 mM EDTA, 2 mM SAH). 35 μl of the quenched solution was transferred to streptavidin coated FlashPlates (PerkinElmer), incubated 1-2 h, washed, and read in a TopCount Reader (PerkinElmer). IC50s were calculated in Genedata Screener using non-linear least square four parameter fits, where the four parameters were IC50, Hill slope, pre-transitional baseline (0% INH), and post-transitional baseline (100% INH).
IC50 values are reported as follows: “A” indicates an IC50 value of less than 0.5 nM; “B” indicates an IC50 value of 0.5 nM to 5 nM; “C” indicates an IC50 value of greater than 5 nM for each enzyme; and “ND” is not determined.

[2] = EZH2 (IC50), 30 pM PRC2 containing wt EZH2; 3-5 h pre-incubation
[3] = read-out: EZH2 (IC50); 30 pM PRC2 containing wt EZH2; 3-5 h pre-incubation
[4] = 30 pM PRC2 containing wt EZH2; 3-5 h pre-incubation; read-out: EZH2 (IC50)

Chain of PRC2 containing wt EZH2 (Q15910 whole entry): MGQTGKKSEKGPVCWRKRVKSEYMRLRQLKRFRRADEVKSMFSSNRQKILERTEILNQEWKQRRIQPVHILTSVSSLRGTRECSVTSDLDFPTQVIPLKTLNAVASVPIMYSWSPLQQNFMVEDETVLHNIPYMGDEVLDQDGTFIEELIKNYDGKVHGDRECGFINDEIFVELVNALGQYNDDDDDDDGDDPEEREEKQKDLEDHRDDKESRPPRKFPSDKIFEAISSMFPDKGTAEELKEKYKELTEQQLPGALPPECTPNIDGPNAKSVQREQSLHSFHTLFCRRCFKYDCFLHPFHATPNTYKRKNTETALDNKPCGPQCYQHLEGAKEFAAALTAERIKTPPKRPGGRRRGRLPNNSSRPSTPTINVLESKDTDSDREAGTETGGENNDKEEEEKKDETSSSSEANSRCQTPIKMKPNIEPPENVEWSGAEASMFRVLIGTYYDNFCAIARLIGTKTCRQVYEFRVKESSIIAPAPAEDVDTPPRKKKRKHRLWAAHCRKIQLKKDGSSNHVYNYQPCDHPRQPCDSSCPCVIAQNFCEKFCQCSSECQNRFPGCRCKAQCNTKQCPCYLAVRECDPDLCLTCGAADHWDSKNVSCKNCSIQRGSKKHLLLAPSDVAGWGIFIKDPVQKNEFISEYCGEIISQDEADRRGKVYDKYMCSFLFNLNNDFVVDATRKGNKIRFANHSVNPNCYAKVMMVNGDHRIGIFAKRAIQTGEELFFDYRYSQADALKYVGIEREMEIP
Chain of PRC2 containing wt EZH2 (O75530 whole entry partner): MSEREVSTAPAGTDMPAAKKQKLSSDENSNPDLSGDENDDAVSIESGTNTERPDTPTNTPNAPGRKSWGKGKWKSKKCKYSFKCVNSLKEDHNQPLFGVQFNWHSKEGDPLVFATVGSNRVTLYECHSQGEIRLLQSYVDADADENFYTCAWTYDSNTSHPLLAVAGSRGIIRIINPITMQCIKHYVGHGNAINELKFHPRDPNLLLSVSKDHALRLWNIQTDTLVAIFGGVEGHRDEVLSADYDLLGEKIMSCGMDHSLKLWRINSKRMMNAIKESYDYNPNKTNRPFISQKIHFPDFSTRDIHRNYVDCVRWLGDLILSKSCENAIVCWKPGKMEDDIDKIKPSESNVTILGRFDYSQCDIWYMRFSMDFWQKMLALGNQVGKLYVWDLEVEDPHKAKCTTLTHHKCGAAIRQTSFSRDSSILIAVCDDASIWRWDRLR
Chain of PRC2 containing wt EZH2 (Q15022 whole entry partner): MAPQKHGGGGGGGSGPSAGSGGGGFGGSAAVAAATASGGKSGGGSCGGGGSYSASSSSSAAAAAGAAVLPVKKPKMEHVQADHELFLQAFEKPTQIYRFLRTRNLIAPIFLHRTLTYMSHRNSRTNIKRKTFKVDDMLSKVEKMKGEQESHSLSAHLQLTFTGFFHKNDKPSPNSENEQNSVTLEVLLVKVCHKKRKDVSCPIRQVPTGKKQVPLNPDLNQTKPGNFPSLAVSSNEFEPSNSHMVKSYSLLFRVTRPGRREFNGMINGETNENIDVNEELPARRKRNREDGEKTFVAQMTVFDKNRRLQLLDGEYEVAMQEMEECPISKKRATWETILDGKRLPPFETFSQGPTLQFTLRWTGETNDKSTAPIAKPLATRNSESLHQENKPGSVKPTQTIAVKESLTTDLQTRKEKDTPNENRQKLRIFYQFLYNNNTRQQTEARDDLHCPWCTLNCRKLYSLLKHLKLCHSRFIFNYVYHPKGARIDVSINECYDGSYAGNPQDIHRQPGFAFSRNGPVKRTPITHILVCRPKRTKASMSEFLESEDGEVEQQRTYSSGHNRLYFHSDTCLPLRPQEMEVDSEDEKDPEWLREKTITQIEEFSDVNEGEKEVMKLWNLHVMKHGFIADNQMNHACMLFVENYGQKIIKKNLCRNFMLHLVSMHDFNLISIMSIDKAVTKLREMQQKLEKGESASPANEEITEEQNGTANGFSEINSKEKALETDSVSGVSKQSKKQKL
Chain of PRC2 containing wt EZH2 (Q09028 whole entry partner): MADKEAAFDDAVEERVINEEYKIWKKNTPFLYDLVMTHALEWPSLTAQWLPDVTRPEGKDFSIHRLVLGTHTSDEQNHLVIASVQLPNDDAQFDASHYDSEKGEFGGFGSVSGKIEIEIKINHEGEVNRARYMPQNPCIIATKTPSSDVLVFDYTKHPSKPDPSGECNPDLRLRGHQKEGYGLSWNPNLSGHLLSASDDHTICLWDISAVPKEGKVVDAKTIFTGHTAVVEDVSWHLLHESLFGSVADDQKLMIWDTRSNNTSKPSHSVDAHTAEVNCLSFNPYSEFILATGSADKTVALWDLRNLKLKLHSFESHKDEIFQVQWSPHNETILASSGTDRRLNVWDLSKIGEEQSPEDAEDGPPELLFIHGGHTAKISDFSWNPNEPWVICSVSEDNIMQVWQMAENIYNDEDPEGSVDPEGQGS
Chain of PRC2 containing wt EZH2 (Q6ZN18 whole entry partner): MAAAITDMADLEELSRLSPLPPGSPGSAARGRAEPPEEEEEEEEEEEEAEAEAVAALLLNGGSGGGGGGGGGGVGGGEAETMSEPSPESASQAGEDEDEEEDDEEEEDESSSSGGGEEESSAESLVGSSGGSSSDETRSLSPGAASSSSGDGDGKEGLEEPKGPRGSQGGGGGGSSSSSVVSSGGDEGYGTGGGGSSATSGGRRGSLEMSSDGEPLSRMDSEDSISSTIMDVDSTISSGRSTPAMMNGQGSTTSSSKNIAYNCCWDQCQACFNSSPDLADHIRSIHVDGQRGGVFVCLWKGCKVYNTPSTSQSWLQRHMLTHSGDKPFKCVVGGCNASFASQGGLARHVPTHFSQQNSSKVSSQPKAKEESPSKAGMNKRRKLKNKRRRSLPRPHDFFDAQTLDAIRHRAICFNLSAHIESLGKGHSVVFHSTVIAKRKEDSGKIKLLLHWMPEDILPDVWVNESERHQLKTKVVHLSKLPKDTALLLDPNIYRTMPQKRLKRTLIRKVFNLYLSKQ

CSc1cc(C)[nH]c(=O)c1CNC(=O)c1c(C)n([C@H](C)C2CCC(O)CC2)c2ccccc12 (single isomer, unassigned) [19 (isomer 1)]
EC50 ([1]; Homo sapiens, HeLa, 72 h): < 10 nM
IC50 (PRC2 containing wt EZH2; [2]): < 0.5 nM

CSc1cc(C)[nH]c(=O)c1CNC(=O)c1c(C)n([C@H](C)C2CCC(O)CC2)c2ccccc12 (single isomer, unassigned) [19 (isomer 2)]
EC50 [1]: < 10 nM
IC50 (PRC2 containing wt EZH2; [3]): < 0.5 nM

CSc1cc(C)[nH]c(=O)c1CNC(=O)c1c(C)n([C@H](C)C2CCC(N3CC(OC(F)F)C3)CC2)c2ccccc12 (single isomer, unassigned) [20 (isomer 1)]
EC50 ([1]; Homo sapiens, HeLa, 72 h): < 10 nM
IC50 (PRC2 containing wt EZH2; [4]): < 0.5 nM

CSc1cc(C)[nH]c(=O)c1CNC(=O)c1c(C)n([C@H](C)C2CCC(N3CC(OC(F)F)C3)CC2)c2ccccc12 (single isomer, unassigned) [20 (isomer 2)]
EC50 [1]: 10 to 100 nM
IC50 (PRC2 containing wt EZH2; [4]): < 0.5 nM

CSc1cc(C)[nH]c(=O)c1CNC(=O)c1c(C)n([C@H](C)C2CCC(N3CC(OC(F)(F)F)C3)CC2)c2ccccc12 (single isomer, unassigned) [21 (isomer 1)]
EC50 ([1]; Homo sapiens, HeLa, 72 h): < 10 nM
IC50 (PRC2 containing wt EZH2; [4]): < 0.5 nM

CSc1cc(C)[nH]c(=O)c1CNC(=O)c1c(C)n([C@H](C)C2CCC(N3CC(OC(F)(F)F)C3)CC2)c2ccccc12 (single isomer, unassigned) [21 (isomer 2)]
EC50 [1]: 10 to 100 nM
IC50 (PRC2 containing wt EZH2; [4]): < 0.5 nM

CSc1cc(C)[nH]c(=O)c1CNC(=O)c1c(C)n([C@H](C)C2CCC(C)(O)CC2)c2ccccc12 (single isomer, unassigned) [22 (isomer 1)]
EC50 ([1]; Homo sapiens, HeLa, 72 h): < 10 nM
IC50 (PRC2 containing wt EZH2; [2]): < 0.5 nM

CSc1cc(C)[nH]c(=O)c1CNC(=O)c1c(C)n([C@H](C)C2CCC(C)(O)CC2)c2ccccc12 (single isomer, unassigned) [22 (isomer 2)]
EC50 [1]: < 10 nM
IC50 (PRC2 containing wt EZH2; [3]): < 0.5 nM

CSc1cc(C)[nH]c(=O)c1CNC(=O)c1c(C)n([C@H](C)C2CCC(N3CC(F)(F)C3)CC2)c2ccccc12 (single isomer, unassigned) [23 (isomer 1)]
EC50 ([1]; Homo sapiens, HeLa, 72 h): 10 to 100 nM
IC50 (PRC2 containing wt EZH2; [2]): 0.5 to 5 nM

CSc1cc(C)[nH]c(=O)c1CNC(=O)c1c(C)n([C@H](C)C2CCC(N3CC(F)(F)C3)CC2)c2ccccc12 (single isomer, unassigned) [23 (isomer 2)]
EC50 [1]: < 10 nM
IC50 (PRC2 containing wt EZH2; [2]): < 0.5 nM

CSc1cc(C)[nH]c(=O)c1CNC(=O)c1c(C)n([C@H](C)C2CCC(N3CC(F)C3)CC2)c2ccccc12 (single isomer, unassigned) [24 (isomer 1)]
EC50 ([1]; Homo sapiens, HeLa, 72 h): < 10 nM
IC50 (PRC2 containing wt EZH2; [2]): < 0.5 nM

CSc1cc(C)[nH]c(=O)c1CNC(=O)c1c(C)n([C@H](C)C2CCC(N3CC(F)C3)CC2)c2ccccc12 (single isomer, unassigned) [24 (isomer 2)]
EC50 [1]: < 10 nM
IC50 (PRC2 containing wt EZH2; [3]): < 0.5 nM

CSc1cc(C)[nH]c(=O)c1CNC(=O)c1c(C)n([C@H](C)[C@H]2CC[C@H](N3CC(OC(F)F)C3)CC2)c2ncccc12 (single isomer, unassigned) [27 (isomer 1)]
EC50 ([1]; Homo sapiens, HeLa, 72 h): < 10 nM
IC50 (PRC2 containing wt EZH2; [4]): < 0.5 nM

CSc1cc(C)[nH]c(=O)c1CNC(=O)c1c(C)n([C@H](C)C2CCC(N3CC(OC4CC4)C3)CC2)c2ncc(F)cc12 (single isomer, unassigned) [28 (isomer 1)]
EC50 ([1]; Homo sapiens, HeLa, 72 h): < 10 nM
IC50 (PRC2 containing wt EZH2; [4]): < 0.5 nM

CSc1cc(C)[nH]c(=O)c1CNC(=O)c1c(C)n([C@H](C)C2CCC(N3CC(OC4CC4)C3)CC2)c2ncc(F)cc12 (single isomer, unassigned) [28 (isomer 2)]
EC50 [1]: 10 to 100 nM
IC50 (PRC2 containing wt EZH2; [4]): < 0.5 nM

CSc1cc(C)[nH]c(=O)c1CNC(=O)c1c(C)n([C@H](C)C2CCC(O)CC2)c2ncccc12 (single isomer, unassigned) [36 (isomer 1)]
EC50 ([1]; Homo sapiens, HeLa, 72 h): 10 to 100 nM
IC50 (PRC2 containing wt EZH2; [2]): < 0.5 nM

CSc1cc(C)[nH]c(=O)c1CNC(=O)c1c(C)n([C@H](C)C2CCC(O)CC2)c2ncccc12 (single isomer, unassigned) [36 (isomer 2)]
EC50 [1]: < 10 nM
IC50 (PRC2 containing wt EZH2; [3]): < 0.5 nM

COC1CCC([C@@H](C)n2c(C)c(C(=O)NCc3c(SC)cc(C)[nH]c3=O)c3cncnc32)CC1 (single isomer, unassigned) [41 (isomer 1)]
EC50 ([1]; Homo sapiens, HeLa, 72 h): < 10 nM
IC50 (PRC2 containing wt EZH2; [2]): < 0.5 nM

COC1CCC([C@@H](C)n2c(C)c(C(=O)NCc3c(SC)cc(C)[nH]c3=O)c3cncnc32)CC1 (single isomer, unassigned) [41 (isomer 2)]
EC50 [1]: < 10 nM
IC50 (PRC2 containing wt EZH2; [3]): < 0.5 nM

CSc1cc(C)[nH]c(=O)c1CNC(=O)c1c(C)n([C@H](C)C2CCC(O)CC2)c2cc(F)ccc12 (single isomer, unassigned) [44 (isomer 1)]
EC50 ([1]; Homo sapiens, HeLa, 72 h): < 10 nM
IC50 (PRC2 containing wt EZH2; [2]): < 0.5 nM

CSc1cc(C)[nH]c(=O)c1CNC(=O)c1c(C)n([C@H](C)C2CCC(O)CC2)c2cc(F)ccc12 (single isomer, unassigned) [44 (isomer 2)]
EC50 [1]: < 10 nM
IC50 (PRC2 containing wt EZH2; [3]): < 0.5 nM

CSc1cc(C)[nH]c(=O)c1CNC(=O)c1c(C)n([C@H](C)C2CCC(N(C)C)CC2)c2ncccc12 (single isomer, unassigned) [51 (isomer 1)]
EC50 [1]: 10 to 100 nM
IC50 (PRC2 containing wt EZH2; [4]): < 0.5 nM

CSc1cc(C)[nH]c(=O)c1CNC(=O)c1c(C)n([C@H](C)C2CCC(N(C)C)CC2)c2ncccc12 (single isomer, unassigned) [51 (isomer 2)]
EC50 [1]: > 100 nM
IC50 (PRC2 containing wt EZH2; [4]): < 0.5 nM

CSc1cc(C)[nH]c(=O)c1CNC(=O)c1c(C)n([C@H](C)C2CCC(O)CC2)c2ncc(Cl)cc12 (single isomer, unassigned) [53 (isomer 1)]
EC50 ([1]; Homo sapiens, HeLa, 72 h): 10 to 100 nM
IC50 (PRC2 containing wt EZH2; [2]): < 0.5 nM

CSc1cc(C)[nH]c(=O)c1CNC(=O)c1c(C)n([C@H](C)C2CCC(O)CC2)c2ncc(Cl)cc12 (single isomer, unassigned) [53 (isomer 2)]
EC50 [1]: < 10 nM
IC50 (PRC2 containing wt EZH2; [3]): < 0.5 nM

CSc1cc(C)[nH]c(=O)c1CNC(=O)c1c(C)n([C@H](C)C2CCC(OC(F)F)CC2)c2ccccc12 (single isomer, unassigned) [60 (isomer 1)]
EC50 ([1]; Homo sapiens, HeLa, 72 h): < 10 nM
IC50 (PRC2 containing wt EZH2; [2]): < 0.5 nM

CSc1cc(C)[nH]c(=O)c1CNC(=O)c1c(C)n([C@H](C)C2CCC(OC(F)F)CC2)c2ccccc12 (single isomer, unassigned) [60 (isomer 2)]
EC50 [1]: < 10 nM
IC50 (PRC2 containing wt EZH2; [3]): < 0.5 nM

CSc1cc(C)[nH]c(=O)c1CNC(=O)c1c(C)n([C@H](C)C2CCC(NC3COC3)CC2)c2ncccc12 (single isomer, unassigned) [62 (isomer 1)]
EC50 [1]: 10 to 100 nM
IC50 (PRC2 containing wt EZH2; [4]): < 0.5 nM

CSc1cc(C)[nH]c(=O)c1CNC(=O)c1c(C)n([C@H](C)C2CCC(NC3COC3)CC2)c2ncccc12 (single isomer, unassigned) [62 (isomer 2)]
EC50 ([1]; listed as 62): > 100 nM
IC50 (PRC2 containing wt EZH2; [4]): 0.5 to 5 nM

Source: US11459315B2, “Modulators of methyl modifying enzymes, compositions and uses thereof” (Constellation Pharmaceuticals, Inc., priority 2017, dated 2022)
